For the assay, the target named is T1, estrogen receptor (Homo sapiens, UniProt P03372).
T1 construct: endogenous in cells; host or cells: ECC-1 cells
T1 sequence (P03372 1-595): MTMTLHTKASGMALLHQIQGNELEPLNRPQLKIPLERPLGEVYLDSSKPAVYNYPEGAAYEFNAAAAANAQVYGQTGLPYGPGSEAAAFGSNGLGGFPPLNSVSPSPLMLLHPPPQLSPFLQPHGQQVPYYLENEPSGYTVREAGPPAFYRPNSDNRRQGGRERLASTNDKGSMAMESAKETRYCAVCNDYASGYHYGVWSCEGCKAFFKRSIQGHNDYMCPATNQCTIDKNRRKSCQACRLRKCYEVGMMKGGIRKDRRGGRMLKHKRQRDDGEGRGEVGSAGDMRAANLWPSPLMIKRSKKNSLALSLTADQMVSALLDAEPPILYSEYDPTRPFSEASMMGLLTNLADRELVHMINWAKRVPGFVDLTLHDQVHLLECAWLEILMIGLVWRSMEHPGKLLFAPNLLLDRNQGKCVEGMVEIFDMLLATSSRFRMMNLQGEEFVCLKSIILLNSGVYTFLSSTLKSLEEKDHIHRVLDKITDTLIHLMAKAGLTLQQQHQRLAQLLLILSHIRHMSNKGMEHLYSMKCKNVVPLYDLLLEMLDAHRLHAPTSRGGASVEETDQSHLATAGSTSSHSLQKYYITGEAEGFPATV
The assay is described as follows: Alkaline phosphatase (AP) assay in ECC-1 cells, agonist mode (no E2) and antagonist mode (500 pM E2). The assay is classed as cell-based. To be noted: 3 days, AP activity normalized to 500 pM E2 alone, agonist mode without E2, antagonist mode with 500 pM E2. On the procedure: ECC-1 cells were trypsinized and resuspended in hormone-depleted media and plated at a density of 15 k cells per well into a 96-well plate for at least 4 hours. Cells were treated with test compounds in the absence of E2 (for agonist mode) or in the presence of 500 pM E2 (for antagonist mode) for 3 days and plates were subsequently frozen at −80° C. Thawed plates were incubated with a chromogenic substrate of AP, p-nitrophenyl phosphate (Thermo Fisher Scientific), for 40 minutes at 42° C., and absorbances were read at 405 nm. AP activity was normalized to the activity of 500 pM E2 alone.
The compound numbers correspond to the compound numbers of Table 1 and 2. Compounds having an activity designated as “+” provided estrogen receptor agonism having (i) at least 80% increase in the E2-normalized signal in the AP assay (agonist mode) and (ii) no more than 80% reduction in the E2-normalized signal in the AP assay (antagonist mode). Compounds having an activity designated as “++” provided estrogen receptor antagonism having (i) between 10% and 80% increase in the E2-normalized signal in the AP assay (agonist mode) and (ii) between 10% and 80% reduction in the E2-normalized signal in the AP assay (antagonist mode).
As to `C[C@@H]1Cc2c([nH]c3ccccc23)[C@@H](c2cnc(CC3CN(CCCF)C3)s2)N1CC(C)(C)F` [Example I-14, 5-[(1S,3R)-2-(2-fluoro-2-methylpropyl)-3-methyl-1H,2H,3H,4H,9H-pyrido[3,4-b]indol-1-yl]-2-{[1-(3-fluoropropyl)azetidin-3-yl]methyl}-1,3-thiazole], the “Activity (estrogen receptor modulation, agonism and antagonism)” value (“Activity” for short) was “++ (estrogen receptor antagonism having (i) between 10% and 80% increase in the E2-normalized signal in the AP assay (agonist mode) and (ii) between 10% and 80% reduction in the E2-normalized signal in the AP assay (antagonist mode))”.

With `C[C@@H]1Cc2c([nH]c3ccccc23)[C@@H](c2ccc(CC3CN(CCC(F)(F)F)C3)s2)N1CC(C)(C)F` [Example I-15, 3-({5-[(1S,3R)-2-(2-fluoro-2-methylpropyl)-3-methyl-1H,2H,3H,4H,9H-pyrido[3,4-b]indol-1-yl]thiophen-2-yl}methyl)-1-(3,3,3-trifluoropropyl)azetidine], the “Activity” value is “++ (estrogen receptor antagonism having (i) between 10% and 80% increase in the E2-normalized signal in the AP assay (agonist mode) and (ii) between 10% and 80% reduction in the E2-normalized signal in the AP assay (antagonist mode))”.

As to `C[C@@H]1Cc2c([nH]c3ccccc23)[C@@H](c2ccc(CC3CN(CCCF)C3)s2)N1CC(F)(F)CO` [Example I-16, 2,2-difluoro-3-[(1S,3R)-1-(5-{[1-(3-fluoropropyl)azetidin-3-yl]methyl}thiophen-2-yl)-3-methyl-1H,2H,3H,4H,9H-pyrido[3,4-b]indol-2-yl]propan-1-ol], the “Activity” value is “+++ (estrogen receptor antagonism (i) with pIC50 greater than 7.5 and at least a 10% reduction in the E2-normalized signal in the AP assay (antagonist mode); and no more than 10% increase in E2-normalized signal in the AP assay (agonist mode))”.

Take `C[C@@H]1Cc2c([nH]c3ccccc23)[C@@H](c2ccc(CC3CN(CCCF)C3)s2)N1CC(F)F` [Example I-17, 3-({5-[(1S,3R)-2-(2,2-difluoroethyl)-3-methyl-1H,2H,3H,4H,9H-pyrido[3,4-b]indol-1-yl]thiophen-2-yl}methyl)-1-(3-fluoropropyl)azetidine]: the “Activity” value is “+++ (estrogen receptor antagonism (i) with pIC50 greater than 7.5 and at least a 10% reduction in the E2-normalized signal in the AP assay (antagonist mode); and no more than 10% increase in E2-normalized signal in the AP assay (agonist mode))”.

On to `C[C@@H]1Cc2c([nH]c3ccccc23)[C@@H](c2ccc(CC3CN(CCC(F)F)C3)s2)N1CC(C)(C)F` [Example I-18, 1-(3,3-difluoropropyl)-3-({5-[(1S,3R)-2-(2-fluoro-2-methylpropyl)-3-methyl-1H,2H,3H,4H,9H-pyrido[3,4-b]indol-1-yl]thiophen-2-yl}methyl)azetidine], for which the “Activity” value is “++ (estrogen receptor antagonism having (i) between 10% and 80% increase in the E2-normalized signal in the AP assay (agonist mode) and (ii) between 10% and 80% reduction in the E2-normalized signal in the AP assay (antagonist mode))”.

`CC1CN(CCCc2ccc([C@@H]3c4[nH]c5ccccc5c4C[C@@H](C)N3CC(C)(C)F)s2)C1` [Example I-19, 1-(3-{5-[(1S,3R)-2-(2-fluoro-2-methylpropyl)-3-methyl-1H,2H,3H,4H,9H-pyrido[3,4-b]indol-1-yl]thiophen-2-yl}propyl)-3-methylazetidine]: the “Activity” value was “++ (estrogen receptor antagonism having (i) between 10% and 80% increase in the E2-normalized signal in the AP assay (agonist mode) and (ii) between 10% and 80% reduction in the E2-normalized signal in the AP assay (antagonist mode))”.

`C[C@@H]1Cc2c([nH]c3ccccc23)[C@@H](c2ccc(CC3CN(CCCF)C3)s2)N1CC(F)(F)F` [Example I-20, 1-(3-fluoropropyl)-3-({5-[(1S,3R)-3-methyl-2-(2,2,2-trifluoroethyl)-1H,2H,3H,4H,9H-pyrido[3,4-b]indol-1-yl]thiophen-2-yl}methyl)azetidine]: the “Activity” value was “++ (estrogen receptor antagonism having (i) between 10% and 80% increase in the E2-normalized signal in the AP assay (agonist mode) and (ii) between 10% and 80% reduction in the E2-normalized signal in the AP assay (antagonist mode))”.

With `C[C@@H]1Cc2c([nH]c3ccccc23)[C@@H](c2ccc(CCCN3CC(CF)C3)s2)N1CC(C)(C)F` [Example I-21, 1-(3-{5-[(1S,3R)-2-(2-fluoro-2-methylpropyl)-3-methyl-1H,2H,3H,4H,9H-pyrido[3,4-b]indol-1-yl]thiophen-2-yl}propyl)-3-(fluoromethyl)azetidine], the “Activity” value was “+++ (estrogen receptor antagonism (i) with pIC50 greater than 7.5 and at least a 10% reduction in the E2-normalized signal in the AP assay (antagonist mode); and no more than 10% increase in E2-normalized signal in the AP assay (agonist mode))”.

`C[C@@H]1Cc2c([nH]c3ccccc23)[C@@H](c2ccc(CC3CN(CCCF)C3)s2)N1CC(C)(F)F` [Example I-22, 3-({5-[(1S,3R)-2-(2,2-difluoropropyl)-3-methyl-1H,2H,3H,4H,9H-pyrido[3,4-b]indol-1-yl]thiophen-2-yl}methyl)-1-(3-fluoropropyl)azetidine]: the “Activity” value was “++ (estrogen receptor antagonism having (i) between 10% and 80% increase in the E2-normalized signal in the AP assay (agonist mode) and (ii) between 10% and 80% reduction in the E2-normalized signal in the AP assay (antagonist mode))”.

Consider `C[C@@H]1Cc2c([nH]c3ccccc23)[C@@H](c2ccc(CC3CN(CCCF)C3)s2)N1CC(F)(F)CF` [Example I-23, (1S,3R)-1-(5-((1-(3-fluoropropyl)azetidin-3-yl)methyl)thiophen-2-yl)-3-methyl-2-(2,2,3-trifluoropropyl)-2,3,4,9-tetrahydro-1H-pyrido[3,4-b]indole], for which the “Activity” value is “++ (estrogen receptor antagonism having (i) between 10% and 80% increase in the E2-normalized signal in the AP assay (agonist mode) and (ii) between 10% and 80% reduction in the E2-normalized signal in the AP assay (antagonist mode))”.

With `C[C@@H]1Cc2c([nH]c3ccccc23)[C@@H](c2ccc(CC3CN(CC4COC4)C3)s2)N1CC(C)(C)F` [Example I-24, (1S,3R)-2-(2-fluoro-2-methylpropyl)-3-methyl-1-(5-((1-(oxetan-3-ylmethyl)azetidin-3-yl)methyl)thiophen-2-yl)-2,3,4,9-tetrahydro-1H-pyrido[3,4-b]indole], the “Activity” value is “++ (estrogen receptor antagonism having (i) between 10% and 80% increase in the E2-normalized signal in the AP assay (agonist mode) and (ii) between 10% and 80% reduction in the E2-normalized signal in the AP assay (antagonist mode))”.

Take `C[C@@H]1Cc2c([nH]c3ccccc23)[C@@H](c2ccc(CCCN3CC[C@@H](CF)C3)s2)N1CC(C)(C)F` [Example I-25, (1S,3R)-2-(2-fluoro-2-methylpropyl)-1-(5-(3-((R)-3-(fluoromethyl)pyrrolidin-1-yl)propyl)thiophen-2-yl)-3-methyl-2,3,4,9-tetrahydro-1H-pyrido[3,4-b]indole]: the “Activity” value is “++ (estrogen receptor antagonism having (i) between 10% and 80% increase in the E2-normalized signal in the AP assay (agonist mode) and (ii) between 10% and 80% reduction in the E2-normalized signal in the AP assay (antagonist mode))”.

Consider `C[C@@H]1CCN(CCCc2ccc([C@@H]3c4[nH]c5ccccc5c4C[C@@H](C)N3CC(C)(C)F)s2)C1` [Example I-26, (3R)-1-(3-{5-[(1S,3R)-2-(2-fluoro-2-methylpropyl)-3-methyl-1H,2H,3H,4H,9H-pyrido[3,4-b]indol-1-yl]thiophen-2-yl}propyl)-3-methylpyrrolidine], for which the “Activity” value was “++ (estrogen receptor antagonism having (i) between 10% and 80% increase in the E2-normalized signal in the AP assay (agonist mode) and (ii) between 10% and 80% reduction in the E2-normalized signal in the AP assay (antagonist mode))”.

In the case of `C[C@@H]1Cc2c([nH]c3ccccc23)[C@@H](c2ccc(CC3CN(CCCF)C3)s2)N1CC(F)(F)C(F)F` [Example I-27, (1S,3R)-1-(5-((1-(3-fluoropropyl)azetidin-3-yl)methyl)thiophen-2-yl)-3-methyl-2-(2,2,3,3-tetrafluoropropyl)-2,3,4,9-tetrahydro-1H-pyrido[3,4-b]indole], the “Activity” value is “++ (estrogen receptor antagonism having (i) between 10% and 80% increase in the E2-normalized signal in the AP assay (agonist mode) and (ii) between 10% and 80% reduction in the E2-normalized signal in the AP assay (antagonist mode))”.

These data come from patent US20260055103A1, “2,3,4,9-TETRAHYDRO-1H-PYRIDO[3,4-B]INDOLE DERIVATIVES AS ESTROGEN RECEPTOR MODULATORS FOR THE TREATMENT OF CANCER” (Olema Pharmaceuticals, Inc., priority 2022, published 2026).
